# Laboratory results taken from patent EP1157002B1, “1,2,3,4-TETRAHYDRO-1-NAPHT[…] USEFUL IN THERAPY” (Pfizer Limited, priority 1999, dated 2000).
# Counter-ions that a name gives are not always drawn. Like-named read-outs stand apart in the source and are kept apart here.
# Target: T1, human serotonin transporter (hSERT) (Homo sapiens, UniProt P31645)
# T1 construct: expressed in transfected cells; host or cells: HEK-293 (human embryonic kidney cells), stably transfected
# Assay: Test A: uptake of 3H-serotonin into human embryonic kidney cells (HEK-293) expressing the human serotonin transporter
# Assay type: cell-based
# Procedure: Uptake of ^3H-biogenic amines into human embryonic kidney cells expressing the human serotonin (5-HT), noradrenalin or dopamine transporter
# Human embryonic kidney cells (HEK-293) stably transfected with either the human serotonin transporter (hSERT), noradrenalin transporter (hNET) or dopamine transporter (hDAT) were cultured under standard cell culture techniques (cells were grown at 37°C and 5% CO2 in DMEM-culture media (supplemented with 10% dialysed foetal calf serum (FCS), 2mM 1-glutamine and 250µg/ml geneticin)). Cells were harvested for the assay to yield a cell suspension of 750,000 cells/ml.
# Assays were carried out in 96-well filter bottom plates. Cells (7500 cells/assay well) were pre-incubated in standard assay buffer containing either test compound, standard inhibitor or compound vehicle (1% DMSO) for 5 minutes. Reactions were started by addition of either ^3H-Serotonin, ^3H-Noradrenaline or ^3H-Dopamine substrates. All reactions were carried out at room temperature in a shaking incubator. Incubation times were 5 minutes for the hSERT and hDAT assays and 15 minutes for the hNET assay. Reactions were terminated by removal of the reaction mixture using a vacuum manifold followed by rapid washing with ice cold assay buffer. The quantity of ^3H-substrate incorporated into the cells was then quantified.
# Assay plates were dried in a microwave oven, scintillation fluid added, and radioactivity measured. Potency of test compounds was quantified as IC50 values (concentration of test compound required to inhibit the specific uptake of radiolabelled substrate into the cells by 50%).
# Standard Assay Buffer Composition: • Trizma hydrochloride (26mM) • NaCl (124mM) • KCl (4.5mM) • KH2PO4 (1.2mM) • MgCl2.6H2O (1.3mM) • Ascorbic acid (1.136mM) • Glucose (5.55mM) • pH 7.40 • CaCl2 (2.8mM) • Pargyline (100µM)
# Note: The pH of the buffer was adjusted to 7.40 with 1M NaOH before addition of CaCl2 and pargyline.
# [1] = inhibition of the up-take of serotonin by human serotonin transporters, HEK-293 hSERT cells, 3H-5HT (50nM), incubation 5 minutes, room temperature, read-out: IC50 value
# T1 sequence (P31645 whole entry): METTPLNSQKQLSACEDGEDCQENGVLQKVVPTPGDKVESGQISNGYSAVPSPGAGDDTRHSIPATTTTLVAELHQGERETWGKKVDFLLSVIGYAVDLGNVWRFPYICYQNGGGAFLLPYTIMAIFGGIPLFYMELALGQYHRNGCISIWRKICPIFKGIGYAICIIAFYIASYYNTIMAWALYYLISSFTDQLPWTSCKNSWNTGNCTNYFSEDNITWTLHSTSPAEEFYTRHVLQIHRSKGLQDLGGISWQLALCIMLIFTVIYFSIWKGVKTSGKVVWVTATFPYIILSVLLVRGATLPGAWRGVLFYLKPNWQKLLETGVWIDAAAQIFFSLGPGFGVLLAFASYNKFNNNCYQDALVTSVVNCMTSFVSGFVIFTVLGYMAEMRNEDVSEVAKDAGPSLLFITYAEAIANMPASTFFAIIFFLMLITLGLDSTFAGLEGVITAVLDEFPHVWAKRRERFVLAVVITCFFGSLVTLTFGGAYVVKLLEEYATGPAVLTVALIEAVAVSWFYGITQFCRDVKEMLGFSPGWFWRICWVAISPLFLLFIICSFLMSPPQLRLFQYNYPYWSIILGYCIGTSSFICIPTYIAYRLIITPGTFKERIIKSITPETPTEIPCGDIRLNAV
Structure (SMILES),IC50 [1],IC50
"CN[C@H]1CC[C@@H](c2ccc(Cl)c(Cl)c2)c2ccc(CNC(N)=O)cc21 [Example 37, Cis-(1S)-N-methyl-7-((N-aminocarboxy)aminomethyl)-4-(3,4-dichlorophenyl)-1,2,3,4-tetrahydro-1-naphthalenamine hydrochloride]",≤ 100 nM,–
"CN[C@H]1CC[C@@H](c2ccc(Cl)c(Cl)c2)c2ccc(-c3ncn[nH]3)cc21 [Example 55, Cis-(1S)-N-methyl-7-(3-(1,2,4-triazolyl))-4-(3,4-dichlorophenyl)-1,2,3,4-tetrahydro-1-naphthalenamine hydrochloride]",≤ 100 nM,–
"CN[C@H]1CC[C@@H](c2ccc(Cl)c(Cl)c2)c2ccc(-c3ncnn3C)cc21 [Example 56, Cis-(1S)-N-methyl-7-(3-(N(2)methyl-1,2,4-triazolyl)-4-(3,4-dichlorophenyl)-1,2,3,4-tetrahydro-1-naphthalenamine hydrochloride]",≤ 100 nM,–
"CN[C@H]1CC[C@@H](c2ccc(Cl)c(Cl)c2)c2ccc(CS(C)(=O)=O)cc21 [Example 74, Cis-(1S)-N-methyl-7-((methylsulphonyl)methyl)-4-(3,4-dichlorophenyl)-1,2,3,4-tetrahydro-1-naphthalenamine]",–,≤ 100 nM
